For one compound, MIC results are on record in patent publication US11168347B2, “Digital quantification of DNA replication and/or chromosome segregation based determination of antimicrobial susceptibility” (CALIFORNIA INSTITUTE OF TECHNOLOGY, priority 2016, dated 2021).

The subject of this assay is E. coli strain isolated from a patient with a urinary tract infection. As to the kind of experiment: microbe, parasite or virus in culture. To be noted: Escherichia coli, read-out: minimum inhibitory concentration.

≈ marks a conversion by molar mass, not a printed value.

For the compound `O=C1CN(/N=C/c2ccc([N+](=O)[O-])o2)C(=O)N1` [nit, Nitrofurantoin], the MIC was 64 mg/L (≈ 269 µM).
